Test results taken from PMC3933693, “Novel Inhibitors of Mitochondrial sn-Glycerol 3-phosphate Dehydrogenase” (PLoS ONE, 2014).

Tests used:
mGPDH = biological target: T1, mGPDH (Rattus norvegicus, UniProt P35571); test: Superoxide/H2O2 production by mGPDH in isolated skeletal muscle mitochondria (Amplex UltraRed); assay type: biochemical; conditions: primary screen, ∼2.5 µM, average of duplicates; 16.7 mM glycerol phosphate, no added calcium
T1 construct: Activity of mGPDH in frozen-thawed skeletal muscle mitochondria was measured; from tissue; host or cells: skeletal muscle mitochondria
T1 sequence (P35571 43-727): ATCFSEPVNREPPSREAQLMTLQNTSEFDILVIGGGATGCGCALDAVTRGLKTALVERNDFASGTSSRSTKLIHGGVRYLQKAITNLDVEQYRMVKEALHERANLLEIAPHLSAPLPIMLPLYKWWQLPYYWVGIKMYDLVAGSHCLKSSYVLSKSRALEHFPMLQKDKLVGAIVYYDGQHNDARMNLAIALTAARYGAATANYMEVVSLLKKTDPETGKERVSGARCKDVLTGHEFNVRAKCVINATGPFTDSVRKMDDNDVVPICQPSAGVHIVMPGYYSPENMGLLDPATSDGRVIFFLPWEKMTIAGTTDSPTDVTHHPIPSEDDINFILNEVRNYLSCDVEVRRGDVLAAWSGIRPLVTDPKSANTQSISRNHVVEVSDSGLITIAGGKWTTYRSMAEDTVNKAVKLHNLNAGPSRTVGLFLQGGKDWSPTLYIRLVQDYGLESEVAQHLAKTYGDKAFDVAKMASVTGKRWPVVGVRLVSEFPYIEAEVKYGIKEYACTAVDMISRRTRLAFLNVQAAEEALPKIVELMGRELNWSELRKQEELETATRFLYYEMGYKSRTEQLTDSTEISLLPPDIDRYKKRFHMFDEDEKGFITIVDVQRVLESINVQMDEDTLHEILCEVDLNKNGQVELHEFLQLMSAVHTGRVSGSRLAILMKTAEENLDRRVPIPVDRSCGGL

[1] = test system: flavin mononucleotide site of complex I (site IF) plus matrix NAD-linked dehydrogenases (site IF/DH); test: Site-specific H2O2 production from site IF/DH in skeletal muscle mitochondria; assay type: biochemical, rat; conditions: primary screen, ∼2.5 µM, average of duplicates
Experimental: (§1) Superoxide was measured as H2O2 after dismutation by endogenous or exogenous superoxide dismutase. Rates of total superoxide/H2O2 production were measured fluorimetrically using Amplex UltraRed in the presence of exogenous superoxide dismutase and horseradish peroxidase in a Varian Cary Eclipse fluorimeter as previously described. Rates of production from specific sites were determined as previously described using the following eight conditions: flavin mononucleotide site of complex I (site IF) plus matrix NAD-linked dehydrogenases (collectively "site IF/DH") with 5 mM glutamate, 5 mM malate, and 4 µM rotenone; ubiquinone-binding site of complex I (site IQ) with either 0.5 or 5 mM succinate; flavin site of complex II (site IIF) with either 15 µM palmitoylcarnitine, 2.5 µM antimycin A, and 2 µM myxothiazol or 0.5 mM succinate, 4 µM rotenone, 2.5 µM antimycin A, and 2 µM myxothiazol, [31]; mGPDH with 1.7 mM glycerol phosphate, 4 µM rotenone, 2.5 µM antimycin A, 2 µM myxothiazol, 1 mM malonate, and 250 nM free calcium; outer ubiquinone-binding site of complex III (site IIIQo) with either 0.5 or 5 mM succinate, 4 µM rotenone and 2.5 µM antimycin A [32]. Candidate small-molecule inhibitors were added prior to the start of measurements and H2O2 calibration curves were performed in the presence of tested compounds.
(§2) 3,200 compounds were tested initially at 2.5 µM (0.025% DMSO final) in duplicate on different plates against a panel of five distinct assays of site-specific superoxide/H2O2 production as described in the previous section with minor changes. […] Endpoint fluorescence was measured on a Perkin Elmer Victor V3 fluorescent plate reader. The fluorescence intensity of each well was normalized as % change from the average of eight DMSO controls on the same plate. Duplicate wells of each of four modulators of mitochondrial metabolism known to inhibit specific sites of superoxide/H2O2 production were included on each plate as positive controls and the resulting fluorescence levels set as −100% change from DMSO controls. Known inhibitors included 20 mM aspartate (for site IF/DH), 1 µM FCCP (for site IQ), 10 mM malonate (for site IIF), and 2 µM myxothiazol (for site IIIQo). The background fluorescence of the FCCP wells in the site IQ assay was used to normalize mGPDH plates run in parallel. To minimize position-dependent effects across each assay plate, Tukey’s two-way median polish was applied to fluorescence values after initial normalization, [36]. Tukey’s polish is an iterative subtraction of the median row and column values from each well’s given row or column. The procedure is repeated until sequential medians for each row and column are zero and positional gradients in fluorescence are eliminated.

[2] = test system: ubiquinone-binding site of complex I (site IQ); test: Site-specific H2O2 production from site IQ in skeletal muscle mitochondria; assay type: biochemical, rat; conditions: primary screen, ∼2.5 µM, average of duplicates; 5 mM succinate;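 also: H2O2 from superoxide detected by Amplex UltraRed fluorescence with added superoxide dismutase and horseradish peroxidase, endpoint read 30–40 min after substrate addition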
[3] = biological target: T2, flavin site of complex II (site IIF) (Rattus norvegicus, UniProt Q920L2); test: Site-specific H2O2 production from site IIF in skeletal muscle mitochondria; assay type: biochemical; conditions: primary screen, ∼2.5 µM, average of duplicates; palmitoylcarnitine
T2 construct: from tissue; host or cells: skeletal muscle mitochondria
Experimental: as §1, §2

[4] = biological target: T3, outer ubiquinone-binding site of complex III (site IIIQo) (Rattus norvegicus, UniProt P00159+P20788); test: Site-specific H2O2 production from site IIIQo in skeletal muscle mitochondria; assay type: biochemical; conditions: primary screen, ∼2.5 µM, average of duplicates; 5 mM succinate
T3 construct: from tissue; host or cells: skeletal muscle mitochondria
Experimental: as §1, §2

[5] = test system: skeletal muscle mitochondria; test: Mitochondrial membrane potential (ΔΨm, TMRM) powered by glutamate plus malate; assay type: biochemical, rat; conditions: primary screen, ∼2.5 µM, average of duplicates; glutamate and malate

T2 sequence (Q920L2 35-656): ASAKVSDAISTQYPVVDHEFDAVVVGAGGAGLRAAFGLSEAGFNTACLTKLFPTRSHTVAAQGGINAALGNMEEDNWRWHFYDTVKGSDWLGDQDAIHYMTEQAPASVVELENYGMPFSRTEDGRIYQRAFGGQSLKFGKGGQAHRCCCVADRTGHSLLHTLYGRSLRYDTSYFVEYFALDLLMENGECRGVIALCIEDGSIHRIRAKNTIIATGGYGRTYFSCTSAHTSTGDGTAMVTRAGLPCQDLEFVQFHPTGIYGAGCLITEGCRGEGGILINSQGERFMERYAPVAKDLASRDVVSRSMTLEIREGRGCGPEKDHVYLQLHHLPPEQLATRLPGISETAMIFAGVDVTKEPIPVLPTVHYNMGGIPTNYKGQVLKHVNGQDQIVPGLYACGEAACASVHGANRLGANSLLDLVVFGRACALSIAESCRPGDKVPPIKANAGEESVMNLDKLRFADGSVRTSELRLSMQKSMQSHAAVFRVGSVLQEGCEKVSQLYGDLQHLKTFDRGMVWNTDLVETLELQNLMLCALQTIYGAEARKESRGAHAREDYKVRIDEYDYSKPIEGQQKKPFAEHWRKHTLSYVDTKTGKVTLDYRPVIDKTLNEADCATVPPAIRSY
T2 sequence (P21913 31-282 partner): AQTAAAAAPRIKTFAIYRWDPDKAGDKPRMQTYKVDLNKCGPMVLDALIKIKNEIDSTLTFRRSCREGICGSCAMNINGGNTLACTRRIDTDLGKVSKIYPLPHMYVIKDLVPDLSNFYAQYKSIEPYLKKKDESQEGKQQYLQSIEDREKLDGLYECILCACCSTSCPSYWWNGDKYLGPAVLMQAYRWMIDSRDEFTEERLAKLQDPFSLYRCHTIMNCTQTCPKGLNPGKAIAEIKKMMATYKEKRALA
T2 sequence (Q641Z9 30-169 partner limits assumed): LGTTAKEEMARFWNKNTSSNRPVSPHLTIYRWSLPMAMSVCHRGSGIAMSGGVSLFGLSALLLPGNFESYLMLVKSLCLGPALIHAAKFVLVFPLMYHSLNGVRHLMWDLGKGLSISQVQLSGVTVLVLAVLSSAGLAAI
T2 sequence (Q6PCT8 57-159 partner): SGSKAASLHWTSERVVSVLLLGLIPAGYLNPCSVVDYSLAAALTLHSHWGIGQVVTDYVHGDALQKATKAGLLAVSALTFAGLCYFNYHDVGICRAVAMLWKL

CC(=O)N(C)c1ccc(NC(=O)c2ccc(-c3ccccc3)cc2)cc1 [compound 5191683]
mGPDH (% change from DMSO) (mGPDH): -10.7%
IF/DH (% change from DMSO) [1]: -3.4%
IQ (% change from DMSO) [2]: -6.3%
IIF (% change from DMSO) [3]: -1.2%
IIIQo (% change from DMSO) [4]: -9.7%
ΔΨm (% change from DMSO) [5]: 0.5%

CN(C)c1nc2ccc(O)cc2s1 [compound 5195231]
mGPDH (% change from DMSO) (mGPDH): -68.8%
IF/DH (% change from DMSO) [1]: -166.4%
IQ (% change from DMSO) [2]: -66.7%
IIF (% change from DMSO) [3]: -110.1%
IIIQo (% change from DMSO) [4]: -41.2%
ΔΨm (% change from DMSO) [5]: 0.4%

CC(C)c1nnc(NC(=O)c2cccc([N+](=O)[O-])c2)s1 [compound 5210298]
mGPDH (% change from DMSO) (mGPDH): -17.8%
IF/DH (% change from DMSO) [1]: -36.0%
IQ (% change from DMSO) [2]: -67.3%
IIF (% change from DMSO) [3]: -17.8%
IIIQo (% change from DMSO) [4]: 4.3%
ΔΨm (% change from DMSO) [5]: -4.4%

Cc1ccc(NC(=O)c2ccc(C(C)(C)C)cc2)cc1 [compound 5210384]
mGPDH (% change from DMSO) (mGPDH): -11.4%
IF/DH (% change from DMSO) [1]: 6.3%
IQ (% change from DMSO) [2]: 1.4%
IIF (% change from DMSO) [3]: -0.156%
IIIQo (% change from DMSO) [4]: 11.8%
ΔΨm (% change from DMSO) [5]: -1.1%

Cc1ccc(S(=O)(=O)CCC#N)cc1C [compound 5210670]
mGPDH (% change from DMSO) (mGPDH): -12.4%
IF/DH (% change from DMSO) [1]: -4.6%
IQ (% change from DMSO) [2]: 0.4%
IIF (% change from DMSO) [3]: -0.354%
IIIQo (% change from DMSO) [4]: -15.9%
ΔΨm (% change from DMSO) [5]: -0.074%

Cc1ccc(S(=O)(=O)c2cc(O)ccc2O)cc1C [compound 5210729]
mGPDH (% change from DMSO) (mGPDH): -21.9%
IF/DH (% change from DMSO) [1]: -32.6%
IQ (% change from DMSO) [2]: -40.9%
IIF (% change from DMSO) [3]: -53.2%
IIIQo (% change from DMSO) [4]: -50.4%
ΔΨm (% change from DMSO) [5]: -0.6%

O=C(O)CSc1cccc(C(=O)Nc2ccc(Br)cc2)c1 [compound 5210767]
mGPDH (% change from DMSO) (mGPDH): -14.1%
IF/DH (% change from DMSO) [1]: -0.5%
IQ (% change from DMSO) [2]: -0.0908%
IIF (% change from DMSO) [3]: 1.3%
IIIQo (% change from DMSO) [4]: -0.0236%
ΔΨm (% change from DMSO) [5]: -0.00715%

CC(=O)c1c(C)n(-c2ccccc2)c2ccc(O)cc12 [compound 5215317]
mGPDH (% change from DMSO) (mGPDH): -14.1%
IF/DH (% change from DMSO) [1]: -34.7%
IQ (% change from DMSO) [2]: -13.7%
IIF (% change from DMSO) [3]: -26.9%
IIIQo (% change from DMSO) [4]: -6.4%
ΔΨm (% change from DMSO) [5]: 0.144%

COc1ccc(C(=O)Nc2ccc(S(=O)(=O)Nc3nc(C)cc(C)n3)cc2)c(OC)c1 [compound 5219504]
mGPDH (% change from DMSO) (mGPDH): -29.8%
IF/DH (% change from DMSO) [1]: -30.7%
IQ (% change from DMSO) [2]: -19.3%
IIF (% change from DMSO) [3]: -44.3%
IIIQo (% change from DMSO) [4]: -8.8%
ΔΨm (% change from DMSO) [5]: 1.4%

CC1(C)CC(=O)C2=C(C1)Nc1cc(Cl)ccc1S2 [compound 5219661]
mGPDH (% change from DMSO) (mGPDH): -22.7%
IF/DH (% change from DMSO) [1]: -91.8%
IQ (% change from DMSO) [2]: -52.0%
IIF (% change from DMSO) [3]: -32.9%
IIIQo (% change from DMSO) [4]: -20.2%
ΔΨm (% change from DMSO) [5]: -1.8%

Cc1nc2ccc(Cl)cc2c2c(N)c3ccccc3n12 [compound 5219795]
mGPDH (% change from DMSO) (mGPDH): -23.3%
IF/DH (% change from DMSO) [1]: -30.5%
IQ (% change from DMSO) [2]: -14.8%
IIF (% change from DMSO) [3]: -49.0%
IIIQo (% change from DMSO) [4]: -23.3%
ΔΨm (% change from DMSO) [5]: 0.6%

CC1=Nc2c([nH]c3ccccc23)-c2cc(C)ccc2N1.Cl [compound 5219818]
mGPDH (% change from DMSO) (mGPDH): -31.6%
IF/DH (% change from DMSO) [1]: -40.2%
IQ (% change from DMSO) [2]: -50.1%
IIF (% change from DMSO) [3]: -51.0%
IIIQo (% change from DMSO) [4]: -36.6%
ΔΨm (% change from DMSO) [5]: -0.5%

CCCCSc1nnc2c(n1)[nH]c1ccc(C)cc12 [compound 5225633]
mGPDH (% change from DMSO) (mGPDH): -10.0%
IF/DH (% change from DMSO) [1]: 16.4%
IQ (% change from DMSO) [2]: -2.4%
IIF (% change from DMSO) [3]: -0.9%
IIIQo (% change from DMSO) [4]: -13.3%
ΔΨm (% change from DMSO) [5]: 1.1%

CCC1CCCCN1C/C=C/c1ccc(N(C)C)cc1 (stereo not drawn) [compound 5429735]
mGPDH (% change from DMSO) (mGPDH): -10.7%
IF/DH (% change from DMSO) [1]: -23.1%
IQ (% change from DMSO) [2]: -0.0537%
IIF (% change from DMSO) [3]: -4.3%
IIIQo (% change from DMSO) [4]: -11.7%
ΔΨm (% change from DMSO) [5]: 0.3%

COc1ccc(CNc2cccc(N(C)C)c2)cc1 [compound 5452512]
mGPDH (% change from DMSO) (mGPDH): -29.7%
IF/DH (% change from DMSO) [1]: -33.7%
IQ (% change from DMSO) [2]: -34.0%
IIF (% change from DMSO) [3]: -24.5%
IIIQo (% change from DMSO) [4]: -33.8%
ΔΨm (% change from DMSO) [5]: 0.0119%

COc1ccc(NCC2CCCCC2)cc1 [compound 5454631]
mGPDH (% change from DMSO) (mGPDH): -20.6%
IF/DH (% change from DMSO) [1]: -52.2%
IQ (% change from DMSO) [2]: -40.9%
IIF (% change from DMSO) [3]: -25.6%
IIIQo (% change from DMSO) [4]: -14.3%
ΔΨm (% change from DMSO) [5]: -0.00487%

c1coc(CNc2ccc3c(c2)OCO3)c1 [compound 5457094]
mGPDH (% change from DMSO) (mGPDH): -20.2%
IF/DH (% change from DMSO) [1]: -27.2%
IQ (% change from DMSO) [2]: -27.2%
IIF (% change from DMSO) [3]: -27.6%
IIIQo (% change from DMSO) [4]: -17.4%
ΔΨm (% change from DMSO) [5]: 0.527%
